pEC50: −log10 of the molar value. Where “and” joins values, the source holds several entries; their conditions need not be identical. Equal entries are not always repeated. Where two headings read alike, the source gives them in different places.
Columns and labels:
[1] = tested on: HDAC 1, 3, 5, 6, 7, 8, 10, 11, and sirt1-2; experiment: HDAC activity assays, summary over the panel; type: biochemical; conditions: HDAC 1, 3, 5, 6, 7, 8, 10, 11, sirt1-2
Method: Assay Conditions. A series of dilution of the test compounds were prepared with 10% DMSO in assay buffer and 5 μl of the dilution was added to a 50 μl reaction so that the final concentration of DMSO is 1% in all of reactions. All of the enzymatic reactions were conducted in duplicate at 37° C. for 30 minutes except of HDAC11 at room temperature for 3 hours. The 50 μl reaction mixture contains HDAC assay buffer, 5 μg BSA, an HDAC substrate, an HDAC enzyme and a test compound. After enzymatic reactions, 50 μl of HDAC Developer was added to each well and the plate was incubated at room temperature for an additional 20 minutes. Fluorescence intensity was measured at an excitation of 360 nm and an emission of 460 nm using a Tecan Infinite M1000 microplate reader.
Data Analysis. HDAC activity assays were performed in duplicates at each concentration. The fluorescent intensity data were analyzed using the computer software, Graphpad Prism. In the absence of the compound, the fluorescent intensity (Ft) in each data set was defined as 100% activity. In the absence of HDAC, the fluorescent intensity (Fb) in each data set was defined as 0% activity. […] The percent activity in the presence of each compound was calculated according to the following equation: % activity=(F−Fb)/(Ft−Fb), where F=the fluorescent intensity in the presence of the compound. […]

[2] = tested on: ACH3 (acetylated histone H3); experiment: Western blotting for ACH3 in hippocampus after administration; type: in vivo, mice
Method: Two and four hrs after its administration, the mice were sacrificed and hippocampi were extracted. […] Purity was verified through Nuclear Magnetic Resonance (NMR) spectroscopy. […] Hippocampus extraction was made at 3 different time points (0.5, 1 and 2 hrs post treatment). A western blotting for ACH3 was then performed.

Oral pharmacokinetics = type: in vivo; conditions: for Kp: brain/plasma
human GCN5 = human GCN5 (Homo sapiens, UniProt Q92830); experiment: GCN5 activation, in vitro assay; type: biochemical
Sequence of human GCN5 (Q92830 whole entry): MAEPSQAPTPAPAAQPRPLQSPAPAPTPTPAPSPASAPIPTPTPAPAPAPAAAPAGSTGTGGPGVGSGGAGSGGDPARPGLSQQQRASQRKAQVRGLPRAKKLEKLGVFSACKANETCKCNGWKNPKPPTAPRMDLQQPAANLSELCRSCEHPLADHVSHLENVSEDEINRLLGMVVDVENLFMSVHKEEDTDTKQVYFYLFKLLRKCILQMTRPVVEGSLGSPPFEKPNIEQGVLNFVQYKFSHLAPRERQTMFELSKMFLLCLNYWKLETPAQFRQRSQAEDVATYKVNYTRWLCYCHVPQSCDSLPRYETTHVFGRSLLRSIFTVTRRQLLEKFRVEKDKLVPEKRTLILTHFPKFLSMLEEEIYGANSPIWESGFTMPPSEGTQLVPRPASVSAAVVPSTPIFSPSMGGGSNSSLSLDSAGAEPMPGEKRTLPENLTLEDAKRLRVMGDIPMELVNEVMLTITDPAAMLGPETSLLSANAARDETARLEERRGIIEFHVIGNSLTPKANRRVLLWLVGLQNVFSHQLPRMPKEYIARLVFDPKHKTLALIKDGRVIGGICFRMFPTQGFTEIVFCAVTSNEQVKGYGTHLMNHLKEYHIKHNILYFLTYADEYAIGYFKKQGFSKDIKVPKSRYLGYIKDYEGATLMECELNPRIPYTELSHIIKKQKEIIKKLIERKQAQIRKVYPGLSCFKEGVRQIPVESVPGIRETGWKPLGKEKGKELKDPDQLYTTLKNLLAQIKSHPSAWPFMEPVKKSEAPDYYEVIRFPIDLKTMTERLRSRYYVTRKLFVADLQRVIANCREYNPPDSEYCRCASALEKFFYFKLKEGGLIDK

HDAC6 = target: T1, HDAC6 (Homo sapiens, UniProt Q9UBN7); experiment: HDAC6 activity assay (fluorescence); conditions: Compound 1 Log [nM] 4.0; Repeat1/Repeat2
T1 sequence (Q9UBN7 1-1215): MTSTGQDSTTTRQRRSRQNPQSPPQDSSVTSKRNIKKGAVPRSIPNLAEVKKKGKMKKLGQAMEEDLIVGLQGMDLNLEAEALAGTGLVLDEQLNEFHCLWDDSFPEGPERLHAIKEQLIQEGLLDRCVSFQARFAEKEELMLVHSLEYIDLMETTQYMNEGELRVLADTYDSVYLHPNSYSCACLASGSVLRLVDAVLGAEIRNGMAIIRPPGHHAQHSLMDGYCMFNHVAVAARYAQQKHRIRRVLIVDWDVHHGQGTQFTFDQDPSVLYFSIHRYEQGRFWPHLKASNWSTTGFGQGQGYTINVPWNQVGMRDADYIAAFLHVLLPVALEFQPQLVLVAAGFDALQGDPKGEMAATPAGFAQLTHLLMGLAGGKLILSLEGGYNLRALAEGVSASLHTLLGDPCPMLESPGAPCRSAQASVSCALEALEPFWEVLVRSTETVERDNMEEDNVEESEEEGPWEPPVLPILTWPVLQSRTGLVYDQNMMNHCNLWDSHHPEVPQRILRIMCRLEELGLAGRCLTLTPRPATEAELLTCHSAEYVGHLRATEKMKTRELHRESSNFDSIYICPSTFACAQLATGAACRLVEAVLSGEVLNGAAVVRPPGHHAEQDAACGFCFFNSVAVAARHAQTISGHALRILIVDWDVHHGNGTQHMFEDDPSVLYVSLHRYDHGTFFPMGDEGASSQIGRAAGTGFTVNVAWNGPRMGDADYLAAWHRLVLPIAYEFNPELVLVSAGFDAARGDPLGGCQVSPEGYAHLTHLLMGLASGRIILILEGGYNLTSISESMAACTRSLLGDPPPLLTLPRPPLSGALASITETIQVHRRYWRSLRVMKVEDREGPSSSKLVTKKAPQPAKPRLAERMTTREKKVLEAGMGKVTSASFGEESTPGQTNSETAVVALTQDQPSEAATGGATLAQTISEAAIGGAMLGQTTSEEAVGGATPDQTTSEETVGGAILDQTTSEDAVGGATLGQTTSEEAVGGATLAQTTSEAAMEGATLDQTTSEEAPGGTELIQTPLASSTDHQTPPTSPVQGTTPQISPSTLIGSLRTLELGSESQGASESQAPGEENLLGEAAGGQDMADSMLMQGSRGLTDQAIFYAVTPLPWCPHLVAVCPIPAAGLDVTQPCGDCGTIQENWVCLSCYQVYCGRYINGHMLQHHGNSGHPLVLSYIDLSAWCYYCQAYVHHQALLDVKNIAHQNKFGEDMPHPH

HDAC3/NCOR2 = HDAC3/NCOR2 (Homo sapiens, UniProt O15379); experiment: HDAC3/NCOR2 activity assay (fluorescence); conditions: Repeat1/Repeat2
Sequence of HDAC3/NCOR2 (O15379 whole entry): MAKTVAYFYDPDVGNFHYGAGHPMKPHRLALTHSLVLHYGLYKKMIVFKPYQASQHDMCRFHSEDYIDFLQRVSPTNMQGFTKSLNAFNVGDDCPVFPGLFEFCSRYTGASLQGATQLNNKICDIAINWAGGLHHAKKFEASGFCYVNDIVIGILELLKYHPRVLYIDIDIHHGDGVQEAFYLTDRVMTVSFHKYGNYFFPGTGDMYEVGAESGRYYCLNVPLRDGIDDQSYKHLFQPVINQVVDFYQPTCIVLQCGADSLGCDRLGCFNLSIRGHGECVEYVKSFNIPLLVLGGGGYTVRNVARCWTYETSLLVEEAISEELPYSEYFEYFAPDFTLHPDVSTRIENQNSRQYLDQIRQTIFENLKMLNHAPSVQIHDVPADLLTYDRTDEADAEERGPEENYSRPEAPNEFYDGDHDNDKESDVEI
Sequence of HDAC3/NCOR2 (Q9Y618 395-489 partner limits assumed): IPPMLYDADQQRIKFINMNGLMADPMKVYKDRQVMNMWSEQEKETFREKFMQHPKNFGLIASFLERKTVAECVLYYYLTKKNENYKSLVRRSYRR

[3] = Chronic administration, adverse effects; type: in vivo; conditions: 45 days, i.p., daily, 20 mg/kg
[4] = Kinetics in blood sampled from tails; type: in vivo, mice; conditions: 20 mg/kg i.p.

## CCOc1cccc(OCCN(C)C)c1C(=O)Nc1ccc(Cl)c(C(F)(F)F)c1 [Compound 1]
[1]
  HDAC inhibition (in words): does not inhibit HDACs
[1]; listed as compound 1
  HDAC inhibition (in words): did not interfere with p300 and HDAC activity
[2]; 50 mg/kg i.p., 2 and 4 hrs, FIG. 1
  ACH3 in hippocampus: increase ACH3
[2]; 5, 10, 20 mg/Kg i.p. in saline, 0.5, 1, 2 hrs, except 1 hr-10 mg/kg, FIG. 2
  ACH3 levels in hippocampus: dramatically increased ACH3 levels
Oral pharmacokinetics; po, read-out: AUC0-t ratio brain/plasma
  Kp: 6.6
Oral pharmacokinetics; po, read-out: AUC0-∞ ratio brain/plasma
  Kp: 6.5
Oral pharmacokinetics; po, read-out: Cmax ratio brain/plasma
  Kp: 5.7
Oral pharmacokinetics; dosed orally, FIG. 17
  amount in the brain compared with plasma: higher than that in the plasma
Oral pharmacokinetics; oral, brain
  AUC0-t: 2149 ng·h/g
  AUC0-∞: 2159 ng·h/g
  Cmax: 1010 ng/g
  MRT: 1.68 h
  Tmax: 1 h
Oral pharmacokinetics; oral, brain, read-out: t1/2 (converted)
  half-life: 0.99 h
Oral pharmacokinetics; oral, plasma
  AUC(0-inf): 330 ng·h/mL
  Cmax: 177 ng/mL
  MRT: 1.5 h
  Tmax: 0.5 h
Oral pharmacokinetics; oral, plasma, read-out: AUC0-t
  AUC0-t: 328 ng·h/mL
Oral pharmacokinetics; oral, plasma, read-out: t1/2 (converted)
  half-life: 1.06 h
Oral pharmacokinetics; po, brain and plasma, read-out: elimination half-lives in the brain and plasma
  half-life: ~1 h
Human GCN5
  pEC50: 4.31 and 4.19
HDAC6
  % Activity (HDAC6): 94.62%
HDAC3/NCOR2; Compound 1 Log [nM] 0.5
  % Activity (HDAC3/NCOR2): 102.35% and 89.76%
HDAC3/NCOR2; Compound 1 Log [nM] 1.0
  % Activity (HDAC3/NCOR2): 98.01% and 97.56%
HDAC3/NCOR2; Compound 1 Log [nM] 1.5
  % Activity (HDAC3/NCOR2): 101.44% and 96.12%
HDAC3/NCOR2; Compound 1 Log [nM] 2.0
  % Activity (HDAC3/NCOR2): 102.25% and 94.61%
HDAC3/NCOR2; Compound 1 Log [nM] 2.5
  % Activity (HDAC3/NCOR2): 101.07% and 95.51%
HDAC3/NCOR2; Compound 1 Log [nM] 3.0
  % Activity (HDAC3/NCOR2): 99.62% and 94.38%
HDAC3/NCOR2; Compound 1 Log [nM] 3.5
  % Activity (HDAC3/NCOR2): 97.14% and 94.27%
HDAC3/NCOR2; Compound 1 Log [nM] 4.0
  % Activity (HDAC3/NCOR2): 108.31% and 94.90%
HDAC3/NCOR2; Compound 1 Log [nM] 4.5
  % Activity (HDAC3/NCOR2): 87.66% and 88.97%
HDAC3/NCOR2; Compound 1 Log [nM] 5.3
  % Activity (HDAC3/NCOR2): 89.40% and 102.23%
[3]
  adverse effects on chronic administration: did not have adverse effects
[4]
  time of peak in blood post-injection: around 30 minutes
